Results taken from PMC12564639, “Discovery of a Novel Anticoagulant Cystine Knot Peptide from Spider Venom Gland Transcriptome” (International Journal of Molecular Sciences, 2025).
Peptide text beside a SMILES is read from it.

How the values were obtained:
[1] = molecular target: T1, Human Activated Protein C (APC-1.0) (Homo sapiens, UniProt P04070); experiment: APC activity by chromogenic substrate assay; format: biochemical; details: APC 0.7145 μM, S-2366 402.1 μM, PBS, 37 °C, pre-incubation 10 min, n = 3
T1 construct: purchased Enzyme Research Laboratories, Inc., South Bend, IN, USA APC-1.0
From the text: Human Activated Protein C (APC-1.0) was purchased from Enzyme Research Laboratories, Inc., South Bend, IN, USA. […] Activated Partial Thromboplastin Time (APTT) Test Kit (TC0306) was bought from Senkey Biotechnology Co., Ltd., Kunming, China. Prothrombin Time (PT) Test Kit (GMS10176) was purchased from GENMED Scientifics Inc., Shanghai, China. Streptavidin (SA) Biosensors (18-5019) were obtained from Sartorius AG, Göttingen, Lower Saxony, Germany. PBS (21-040-CVC) was bought from Corning Incorporated, Corning, NY, USA. Tween-20 (BS361B) was purchased from Biosharp Life Sciences, Hefei, Anhui, China. Trifluoroacetic acid (TFA, T818778-500ml, CAS: 76-05-1) and CaCl2 (C805225) were obtained from Macklin Biochemical Co., Ltd., Shanghai, China. L-oxidized glutathione (GSSG, V900363), Rose Bengal Dye (content 95%, CAS: 632-69-9, 330000-5G), and HEPES (V900477-500G) were purchased from Sigma-Aldrich LLC, St. Louis, MO, USA (Shanghai branch: Sigma-Aldrich Shanghai Trading Co., Ltd., Shanghai, China). […]
APC (0.7145 μM) was pre-incubated with varying concentrations of GC38 (0.1, 1 and 10 μM) in PBS at 37 °C for 10 min. […] Kinetic measurements were performed at 37 °C using a Multi-Mode Microplate Reader (BioTek Synergy™ H1, Winooski, VT, USA) with absorbance at 405 nm recorded every 10 s for 30 min. […]

[2] = system: human embryonic kidney cells (HEK293T); experiment: Cytotoxicity (CCK-8), HEK293T; format: cell-based; details: 24 h, n = 3
Description: The cytotoxicity of GC38 was evaluated in human embryonic kidney cells (HEK293T), human keratinocytes (HaCaT), and murine macrophage (RAW264.7) cell lines. The cells were from Kunming Cell Bank, Chinese Academy of Sciences. HEK293T and HaCaT cells were cultured in DMEM supplemented with 10% fetal bovine serum (FBS) and 1% penicillin-streptomycin, and RAW264.7 cells were maintained in RPMI 1640 containing 10% FBS and 1% penicillin–streptomycin, with all cell lines incubated at 37 °C under 5% CO2. For cytotoxicity assessment, cells were seeded at a density of 1 × 10^5 cells per well in 96-well plates and incubated for 12 h. […] After 24 h incubation, cell viability was determined using the CCK-8 assay (10 μL/well). Absorbance was measured at 450 nm using a multi-mode microplate reader (BioTek Synergy™ H1, Winooski, VT, USA). Untreated cells and cells treated with 10% DMSO served as negative and positive controls, respectively. Viability percentages were calculated relative to the untreated control. All experiments were conducted in triplicate, and data were expressed as mean ± SEM.

T1 sequence (P04070 212-461 limits assumed): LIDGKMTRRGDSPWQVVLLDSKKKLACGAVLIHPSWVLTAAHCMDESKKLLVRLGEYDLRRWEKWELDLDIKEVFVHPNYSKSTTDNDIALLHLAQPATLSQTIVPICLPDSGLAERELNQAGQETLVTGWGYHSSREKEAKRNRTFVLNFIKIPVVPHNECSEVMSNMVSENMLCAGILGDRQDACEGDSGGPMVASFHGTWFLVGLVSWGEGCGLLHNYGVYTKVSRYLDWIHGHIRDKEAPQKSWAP
T1 sequence (P04070 43-197 limits assumed): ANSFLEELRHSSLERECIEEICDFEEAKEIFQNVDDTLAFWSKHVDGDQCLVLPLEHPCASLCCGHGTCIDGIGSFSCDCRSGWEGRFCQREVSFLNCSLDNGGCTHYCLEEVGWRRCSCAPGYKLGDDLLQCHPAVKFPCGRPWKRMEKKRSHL

`CSCC[C@@H]1NC(=O)[C@H](CC(N)=O)NC(=O)CNC(=O)CNC(=O)[C@H](Cc2c[nH]cn2)NC(=O)[C@H](CCCNC(=N)N)NC(=O)CNC(=O)[C@@H]2CSSC[C@@H]3NC(=O)[C@H](CCCNC(=N)N)NC(=O)[C@H](C)NC(=O)CNC(=O)[C@H](CCCCN)NC(=O)CNC(=O)[C@H](CO)NC(=O)[C@@H](NC(=O)CN)CSSC[C@H](NC(=O)[C@H](CSSC[C@@H](C(=O)N[C@@H](CCC(=O)O)C(=O)N[C@@H](Cc4c[nH]c5ccccc45)C(=O)N[C@@H](CC(N)=O)C(=O)N[C@@H](Cc4c[nH]c5ccccc45)C(=O)N[C@@H](CCCCN)C(=O)N[C@H](C(=O)NCC(=O)O)[C@@H](C)O)NC(=O)[C@H](CO)NC(=O)[C@H](CCCCN)NC(=O)[C@H](Cc4ccc(O)cc4)NC1=O)NC(=O)[C@H](CCCCN)NC(=O)[C@H](CO)NC(=O)[C@@H]1CCCN1C(=O)[C@H](C)NC3=O)C(=O)N[C@@H](CO)C(=O)NCC(=O)N[C@@H](CC(C)C)C(=O)N[C@@H](CO)C(=O)N2` [GC38] (HELM PEPTIDE1{G.C.S.G.K.G.A.R.C.A.P.S.K.C.C.S.G.L.S.C.G.R.H.G.G.N.M.Y.K.S.C.E.W.N.W.K.T.G}$PEPTIDE1,PEPTIDE1,2:R3-15:R3|PEPTIDE1,PEPTIDE1,9:R3-20:R3|PEPTIDE1,PEPTIDE1,14:R3-31:R3$$$V2.0) was tested. Which “activity of APC at maximum catalytic velocity (Vmax)” value ([1]; GC38 10 μM, 405 nm, versus PBS control, mean) did it give?
Its value is 171%.

What about the “APC activity, concentration dependence” value ([1]; GC38 0.1-10 μM, absorbance 405 nm every 10 s for 30 min) of the same compound?
The value was “enhanced APC activity in a concentration-dependent manner”.

What about the “cell viability HEK293T” value ([2]; 50 μM, serum-free medium, CCK-8, 450 nm, relative to untreated control) of the same compound?
Its value is “greater than 95%”.

What about the “cytotoxicity HEK293T” value ([2]; 0.1–50 μM, CCK-8) of the same compound?
Its value is “negligible cytotoxicity”.
